Test results: ChEMBL document CHEMBL5346907, “Discovery of a novel oral type Ⅰ CDK8 inhibitor against acute myeloid leukemia” (Eur J Med Chem, 2023)
The source made the active and inactive calls. The calls are words filed in the database; no cut-off is given here.

Assays:
[1] = target: Fibroblast growth factor receptor 3 (Homo sapiens) (UniProt P22607); experiment: Inhibition of FGFR3 (unknown origin) at 1 uM preincubated for 10 mins followed by substrate addition measured for 60 to 120 mins by HTRF assay relative to control; settings: time 70-130 min
HL-60 [2] = experiment: Induction of apoptosis in human HL-60 cells assessed as necrotic cells at 10 uM incubated for 48 hrs by annexin V-FITC/PI staining based flow cytometry (reference value: 0.26 %); format: functional
C1498 [3] = experiment: Downregulation of STAT1 S727 expression in mouse C1498 cells allografted in AML Balb/C mouse model administered orally daily for 15 days measured after 3 weeks by Western blot analysis; format: functional, cell-based; settings: dose 40-80 mg/kg, route po, time 15.0 day
[4] = target: Tyrosine-protein kinase receptor TYRO3 (Homo sapiens) (UniProt Q06418); experiment: Inhibition of TYRO3 (unknown origin) at 1 uM preincubated for 10 mins followed by substrate addition measured for 60 to 120 mins by HTRF assay relative to control; settings: time 70-130 min
Chain of Tyrosine-protein kinase receptor TYRO3 (Homo sapiens) (Q06418 whole entry): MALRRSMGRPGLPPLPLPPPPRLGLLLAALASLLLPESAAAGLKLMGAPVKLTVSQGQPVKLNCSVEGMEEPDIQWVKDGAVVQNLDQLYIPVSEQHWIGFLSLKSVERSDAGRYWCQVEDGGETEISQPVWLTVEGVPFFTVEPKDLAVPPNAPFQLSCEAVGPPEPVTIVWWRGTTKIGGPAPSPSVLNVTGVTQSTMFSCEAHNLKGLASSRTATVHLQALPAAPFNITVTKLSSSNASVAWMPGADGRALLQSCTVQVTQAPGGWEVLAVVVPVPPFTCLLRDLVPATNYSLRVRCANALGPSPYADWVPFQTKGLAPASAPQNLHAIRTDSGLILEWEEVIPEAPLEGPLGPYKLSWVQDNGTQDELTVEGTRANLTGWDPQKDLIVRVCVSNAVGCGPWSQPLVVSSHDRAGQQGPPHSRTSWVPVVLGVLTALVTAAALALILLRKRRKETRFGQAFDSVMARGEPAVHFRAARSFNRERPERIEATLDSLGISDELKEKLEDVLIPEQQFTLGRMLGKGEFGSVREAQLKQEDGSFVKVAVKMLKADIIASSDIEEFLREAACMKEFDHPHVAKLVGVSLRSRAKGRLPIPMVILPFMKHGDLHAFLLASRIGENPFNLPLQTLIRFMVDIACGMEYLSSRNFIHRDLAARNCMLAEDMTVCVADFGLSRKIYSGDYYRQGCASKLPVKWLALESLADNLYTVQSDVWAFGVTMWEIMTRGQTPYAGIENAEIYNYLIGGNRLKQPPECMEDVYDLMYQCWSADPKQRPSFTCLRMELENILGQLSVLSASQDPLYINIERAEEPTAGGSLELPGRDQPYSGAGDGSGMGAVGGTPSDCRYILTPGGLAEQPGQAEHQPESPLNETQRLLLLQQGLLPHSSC

[5] = target: CDK1/Cyclin A (Homo sapiens) (UniProt P06493+P20248); experiment: Inhibition of CDK1/Cyclin A2 (unknown origin) at 1 uM preincubated for 10 mins followed by substrate addition measured for 60 to 120 mins by HTRF assay relative to control; format: protein-complex assay; settings: time 70-130 min
Chain of CDK1/Cyclin A (Homo sapiens) (P06493 whole entry, looked up): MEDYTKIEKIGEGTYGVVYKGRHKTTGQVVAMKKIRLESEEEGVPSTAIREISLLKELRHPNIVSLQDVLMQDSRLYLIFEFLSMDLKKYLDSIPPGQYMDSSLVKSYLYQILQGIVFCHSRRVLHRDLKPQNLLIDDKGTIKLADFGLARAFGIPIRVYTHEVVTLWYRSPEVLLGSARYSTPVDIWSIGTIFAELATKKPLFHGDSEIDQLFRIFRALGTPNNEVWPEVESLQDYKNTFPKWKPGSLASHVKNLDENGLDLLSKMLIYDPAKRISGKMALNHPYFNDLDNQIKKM
Chain of CDK1/Cyclin A (Homo sapiens) (P20248 whole entry, looked up): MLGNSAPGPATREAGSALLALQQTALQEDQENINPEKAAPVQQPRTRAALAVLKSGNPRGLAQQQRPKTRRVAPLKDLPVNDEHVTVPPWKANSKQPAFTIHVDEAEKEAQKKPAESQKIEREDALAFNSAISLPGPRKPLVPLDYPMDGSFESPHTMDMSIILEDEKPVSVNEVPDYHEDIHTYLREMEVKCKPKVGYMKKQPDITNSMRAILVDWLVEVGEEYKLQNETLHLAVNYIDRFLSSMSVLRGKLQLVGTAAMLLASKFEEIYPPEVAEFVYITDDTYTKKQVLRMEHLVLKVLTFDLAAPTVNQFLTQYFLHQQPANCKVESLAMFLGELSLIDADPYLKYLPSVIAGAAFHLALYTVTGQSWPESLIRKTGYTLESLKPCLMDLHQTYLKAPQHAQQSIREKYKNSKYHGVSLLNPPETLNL

HL-60 [6] = experiment: Induction of apoptosis in human HL-60 cells assessed as viable cells at 5 uM incubated for 48 hrs by annexin V-FITC/PI staining based flow cytometry (reference value: 96.5 %); format: functional; settings: read-out: Activity
[7] = target: Fibroblast growth factor receptor 4 (Homo sapiens) (UniProt P22455); experiment: Inhibition of FGFR4 (unknown origin) at 1 uM preincubated for 10 mins followed by substrate addition measured for 60 to 120 mins by HTRF assay relative to control; settings: time 70-130 min
[8] = target: ALK tyrosine kinase receptor (Homo sapiens) (UniProt Q9UM73); experiment: Inhibition of ALK (unknown origin) at 1 uM preincubated for 10 mins followed by substrate addition measured for 60 to 120 mins by HTRF assay relative to control; settings: time 70-130 min
Chain of ALK tyrosine kinase receptor (Homo sapiens) (Q9UM73 19-1620 limits assumed): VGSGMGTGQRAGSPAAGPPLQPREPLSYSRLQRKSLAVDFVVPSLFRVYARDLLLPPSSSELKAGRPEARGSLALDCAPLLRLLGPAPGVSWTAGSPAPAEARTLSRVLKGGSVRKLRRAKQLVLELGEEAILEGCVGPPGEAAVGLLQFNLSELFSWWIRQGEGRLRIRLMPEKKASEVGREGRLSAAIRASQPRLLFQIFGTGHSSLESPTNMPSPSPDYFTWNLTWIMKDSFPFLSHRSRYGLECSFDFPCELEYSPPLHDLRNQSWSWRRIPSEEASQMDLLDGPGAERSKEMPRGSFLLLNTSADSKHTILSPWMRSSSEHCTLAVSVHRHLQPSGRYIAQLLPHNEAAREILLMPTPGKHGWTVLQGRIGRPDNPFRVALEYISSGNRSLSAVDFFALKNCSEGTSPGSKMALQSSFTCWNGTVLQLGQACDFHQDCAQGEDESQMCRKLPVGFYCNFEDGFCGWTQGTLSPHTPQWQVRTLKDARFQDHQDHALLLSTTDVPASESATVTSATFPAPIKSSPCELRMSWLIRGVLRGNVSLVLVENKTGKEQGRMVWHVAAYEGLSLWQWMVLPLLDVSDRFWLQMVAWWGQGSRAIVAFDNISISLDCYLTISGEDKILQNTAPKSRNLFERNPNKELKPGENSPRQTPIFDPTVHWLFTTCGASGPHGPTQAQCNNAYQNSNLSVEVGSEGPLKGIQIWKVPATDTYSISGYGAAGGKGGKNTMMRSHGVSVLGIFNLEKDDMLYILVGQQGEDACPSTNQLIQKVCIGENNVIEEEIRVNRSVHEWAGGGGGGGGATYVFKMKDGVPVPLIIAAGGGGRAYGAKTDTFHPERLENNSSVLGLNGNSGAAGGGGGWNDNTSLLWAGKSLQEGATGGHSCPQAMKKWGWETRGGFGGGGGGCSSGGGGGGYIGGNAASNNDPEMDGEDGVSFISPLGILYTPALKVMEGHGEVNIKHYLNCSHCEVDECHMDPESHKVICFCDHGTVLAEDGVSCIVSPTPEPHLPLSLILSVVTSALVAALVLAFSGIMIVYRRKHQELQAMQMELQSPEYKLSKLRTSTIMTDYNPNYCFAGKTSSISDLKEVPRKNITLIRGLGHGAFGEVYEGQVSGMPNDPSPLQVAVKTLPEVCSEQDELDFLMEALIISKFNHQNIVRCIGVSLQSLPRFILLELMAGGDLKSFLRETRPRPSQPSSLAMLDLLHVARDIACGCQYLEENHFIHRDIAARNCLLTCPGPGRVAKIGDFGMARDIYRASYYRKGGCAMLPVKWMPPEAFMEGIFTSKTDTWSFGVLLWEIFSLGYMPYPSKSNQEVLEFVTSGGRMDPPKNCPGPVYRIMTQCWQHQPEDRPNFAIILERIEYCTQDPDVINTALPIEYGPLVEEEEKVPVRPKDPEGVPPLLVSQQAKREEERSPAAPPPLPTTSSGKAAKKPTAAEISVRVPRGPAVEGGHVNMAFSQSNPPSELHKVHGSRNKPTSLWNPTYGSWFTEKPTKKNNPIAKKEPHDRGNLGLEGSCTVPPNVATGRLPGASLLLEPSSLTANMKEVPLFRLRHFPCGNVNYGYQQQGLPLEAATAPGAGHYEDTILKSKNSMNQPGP

HL-60 [9] = experiment: Induction of apoptosis in human HL-60 cells assessed as early apoptosis cells at 5 uM incubated for 48 hrs by annexin V-FITC/PI staining based flow cytometry (reference value: 2.08 %); format: functional
MGC-803 = experiment: Antiproliferative activity against human MGC-803 cells incubated for 48 hrs by CCK8 assay; format: functional
HL-60 [10] = experiment: Induction of apoptosis in human HL-60 cells assessed as late apoptotic cells at 5 uM incubated for 48 hrs by annexin V-FITC/PI staining based flow cytometry (reference value: 1.07 %); format: functional
[11] = target: CDK12/Cyclin K (Homo sapiens) (UniProt O75909+Q9NYV4); experiment: Inhibition of CDK12/Cyclin K (unknown origin) at 1 uM preincubated for 10 mins followed by substrate addition measured for 60 to 120 mins by HTRF assay relative to control; format: protein-complex assay; settings: time 70-130 min
[12] = target: Ephrin type-B receptor 3 (Homo sapiens) (UniProt P54753); experiment: Inhibition of EPHB3 (unknown origin) at 1 uM preincubated for 10 mins followed by substrate addition measured for 60 to 120 mins by HTRF assay relative to control; settings: time 70-130 min
HL-60 [13] = experiment: Induction of apoptosis in human HL-60 cells assessed as viable cells at 10 uM incubated for 48 hrs by annexin V-FITC/PI staining based flow cytometry (reference value: 96.5 %); format: functional; settings: read-out: Activity
[14] = Acute toxicity in C57BL/6 mouse assessed as histopathological change in lung at 2000 mg/kg, IG measured for 14 days by H&E staining based analysis; format: organism-based; settings: in vivo, po, 336 h, time 14 day
C1498 [15] = experiment: Antitumor activity against mouse C1498 cells allografted in AML Balb/C mouse model assessed as reduction in tumor growth at 40 to 80 mg/kg, po administered daily for 15 days measured on every 2 days; format: functional, organism-based; settings: dose 40-80 mg/kg, time 15.0 day
SW480 = experiment: Antiproliferative activity against human SW480 cells incubated for 48 hrs by CCK8 assay; format: functional
[16] = target: Tyrosine-protein kinase Fes/Fps (Homo sapiens) (UniProt P07332); experiment: Inhibition of FES (unknown origin) at 1 uM preincubated for 10 mins followed by substrate addition measured for 60 to 120 mins by HTRF assay relative to control; settings: time 70-130 min
[17] = target: Cyclin-dependent kinase 13/Cyclin-K (Homo sapiens) (UniProt Q14004+O75909); experiment: Inhibition of CDK13/Cyclin K (unknown origin) at 1 uM preincubated for 10 mins followed by substrate addition measured for 60 to 120 mins by HTRF assay relative to control; format: protein-complex assay; settings: time 70-130 min
[18] = target: Discoidin domain-containing receptor 2 (Homo sapiens) (UniProt Q16832); experiment: Inhibition of DDR2 (unknown origin) at 1 uM preincubated for 10 mins followed by substrate addition measured for 60 to 120 mins by HTRF assay relative to control; settings: time 70-130 min
Chain of Discoidin domain-containing receptor 2 (Homo sapiens) (Q16832 whole entry, the tested form may be a part): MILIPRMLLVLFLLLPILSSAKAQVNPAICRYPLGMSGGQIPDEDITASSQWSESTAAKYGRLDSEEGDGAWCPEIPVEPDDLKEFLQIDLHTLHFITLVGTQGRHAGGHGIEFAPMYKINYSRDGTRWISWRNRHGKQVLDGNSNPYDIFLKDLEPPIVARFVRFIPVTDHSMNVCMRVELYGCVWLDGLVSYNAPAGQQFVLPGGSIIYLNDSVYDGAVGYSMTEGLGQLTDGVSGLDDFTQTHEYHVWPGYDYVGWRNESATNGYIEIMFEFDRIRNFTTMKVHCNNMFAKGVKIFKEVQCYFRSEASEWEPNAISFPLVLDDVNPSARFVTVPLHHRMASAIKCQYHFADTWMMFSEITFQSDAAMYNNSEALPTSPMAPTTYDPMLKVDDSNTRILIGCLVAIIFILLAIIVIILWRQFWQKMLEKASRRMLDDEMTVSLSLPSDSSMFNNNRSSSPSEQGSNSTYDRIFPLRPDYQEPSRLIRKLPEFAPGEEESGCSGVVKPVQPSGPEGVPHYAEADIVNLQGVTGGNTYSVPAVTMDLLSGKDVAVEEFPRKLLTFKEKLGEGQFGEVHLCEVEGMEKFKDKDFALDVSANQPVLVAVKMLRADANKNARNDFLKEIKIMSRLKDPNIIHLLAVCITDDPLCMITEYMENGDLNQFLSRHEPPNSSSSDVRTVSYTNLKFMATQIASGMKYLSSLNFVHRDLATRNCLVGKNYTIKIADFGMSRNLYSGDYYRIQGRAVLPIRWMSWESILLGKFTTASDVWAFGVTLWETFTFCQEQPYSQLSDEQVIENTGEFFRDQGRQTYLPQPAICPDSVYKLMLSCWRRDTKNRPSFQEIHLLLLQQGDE

HL-60 [19] = experiment: Induction of apoptosis in human HL-60 cells assessed as early apoptosis cells at 10 uM incubated for 48 hrs by annexin V-FITC/PI staining based flow cytometry (reference value: 2.08 %); format: functional
HL-60 [20] = experiment: Induction of apoptosis in human HL-60 cells assessed as late apoptotic cells at 10 uM incubated for 48 hrs by annexin V-FITC/PI staining based flow cytometry (reference value: 1.07 %); format: functional
[21] = target: Tyrosine-protein kinase Fyn (Homo sapiens) (UniProt P06241); experiment: Inhibition of FYN b (unknown origin) at 1 uM preincubated for 10 mins followed by substrate addition measured for 60 to 120 mins by HTRF assay relative to control; settings: time 70-130 min
Chain of Tyrosine-protein kinase Fyn (Homo sapiens) (P06241 2-537 limits assumed): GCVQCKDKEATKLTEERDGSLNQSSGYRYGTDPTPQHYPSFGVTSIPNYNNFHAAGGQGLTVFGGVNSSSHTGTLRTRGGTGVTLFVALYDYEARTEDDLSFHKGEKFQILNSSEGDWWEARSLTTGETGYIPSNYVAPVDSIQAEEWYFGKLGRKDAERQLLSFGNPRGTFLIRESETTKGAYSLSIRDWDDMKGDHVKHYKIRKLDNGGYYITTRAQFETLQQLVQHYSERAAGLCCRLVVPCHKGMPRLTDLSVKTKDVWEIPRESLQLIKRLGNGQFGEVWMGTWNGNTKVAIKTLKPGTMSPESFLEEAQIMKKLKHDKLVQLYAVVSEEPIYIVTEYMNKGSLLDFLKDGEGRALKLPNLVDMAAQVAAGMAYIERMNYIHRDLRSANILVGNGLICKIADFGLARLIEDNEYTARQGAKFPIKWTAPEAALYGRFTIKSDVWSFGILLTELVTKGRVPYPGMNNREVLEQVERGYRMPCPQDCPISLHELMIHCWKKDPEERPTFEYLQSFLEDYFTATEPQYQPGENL

[22] = target: CDK18/Cyclin Y (Homo sapiens) (UniProt Q07002+Q8ND76); experiment: Inhibition of CDK18/CyclinY (unknown origin) at 1 uM preincubated for 10 mins followed by substrate addition measured for 60 to 120 mins by HTRF assay relative to control; format: protein-complex assay; settings: time 70-130 min
A549 = experiment: Antiproliferative activity against human A549 cells incubated for 48 hrs by CCK8 assay; format: functional
[23] = target: T1, Cyclin-dependent kinase 8 (Homo sapiens, UniProt P49336); experiment: Binding affinity to CDK8 in human HCT-116 cells upto 4 uM incubated for 12 hrs by biotin pull down based Western blot analysis; format: cell-based
T1 sequence (P49336 whole entry): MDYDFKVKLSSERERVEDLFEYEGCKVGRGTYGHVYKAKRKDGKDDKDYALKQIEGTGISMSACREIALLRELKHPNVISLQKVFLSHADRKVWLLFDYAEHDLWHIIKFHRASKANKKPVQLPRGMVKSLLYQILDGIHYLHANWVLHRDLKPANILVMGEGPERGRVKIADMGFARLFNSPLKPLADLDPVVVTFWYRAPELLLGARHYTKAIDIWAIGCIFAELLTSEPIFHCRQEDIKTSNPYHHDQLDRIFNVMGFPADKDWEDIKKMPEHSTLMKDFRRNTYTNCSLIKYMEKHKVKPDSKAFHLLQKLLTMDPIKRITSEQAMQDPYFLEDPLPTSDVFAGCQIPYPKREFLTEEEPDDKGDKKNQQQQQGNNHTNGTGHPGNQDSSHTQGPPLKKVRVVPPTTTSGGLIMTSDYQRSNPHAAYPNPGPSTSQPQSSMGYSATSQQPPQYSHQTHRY

[24] = target: T1, Cyclin-dependent kinase 8; experiment: Binding affinity to CDK8 in human HCT-116 cells assessed as increase in degradation temperature of protein at 5 uM incubated for 6 hrs followed by heating for 4 mins by CETSA assay (reference value: 55 degreeC); format: cell-based; settings: time 6.06 hrs
[25] = target: Tyrosine-protein kinase Lck (Homo sapiens) (UniProt P06239); experiment: Inhibition of LCK (unknown origin) at 1 uM preincubated for 10 mins followed by substrate addition measured for 60 to 120 mins by HTRF assay relative to control; settings: time 70-130 min
[26] = Half life in Sprague-Dawley rat at 10 mg/kg, po; format: ADME, organism-based; settings: in vivo
[27] = target: CDK3/Cyclin E (Homo sapiens) (UniProt P24864+Q00526); experiment: Inhibition of CDK3/CyclinE1 (unknown origin) at 1 uM preincubated for 10 mins followed by substrate addition measured for 60 to 120 mins by HTRF assay relative to control; format: protein-complex assay; settings: time 70-130 min

NC(=O)c1cccc(-c2cnc3[nH]ccc3c2)c1
inhibition [1]: 10.8%
Activity (HL-60 [2]): 1.79%
Activity (C1498 [3]): Dose-Dependent Effect
inhibition [4]: 7%
inhibition [5]: 8.45%
viability at 5 µM (HL-60 [6]): 9.73%
inhibition [7]: 14.1%
inhibition [8]: 19.1%
Activity (HL-60 [9]): 22.4%
GI50 (MGC-803): > 50 µM
Activity (HL-60 [10]): 1.45%
inhibition [11]: 0.16%
inhibition [12]: 13.5%
viability at 10 µM (HL-60 [13]): 37.8%
Activity [14]: Non-Toxic
Activity (C1498 [15]): Active
GI50 (SW480): > 50 µM
inhibition [16]: 26.7%
inhibition [17]: 9.63%
inhibition [18]: 0%
Activity (HL-60 [19]): 0.15%
Activity (HL-60 [20]): 2.43%
inhibition [21]: 24.8%
inhibition [22]: 3.47%
GI50 (A549): > 50 µM
Activity [23]: Active
T [24]: 61 °C
inhibition [25]: 1.59%
half-life [26]: 1.4 h
inhibition [27]: 1.34%
